This note sets out measurements from patent US20260028354A1, “TETRAHYDRONAPHTHALENE DERIVATIVES AS ESTROGEN RECEPTOR DEGRADERS” (REGENT OF THE UNIVERSITY OF MICHIGAN, priority 2022, published 2026).

Counter-ions that a name gives are not always drawn. Like-named read-outs stand apart in the source and are kept apart here. Some results are limits rather than exact numbers.

Common to all, as to format: cell-based
The nature of experiment [1]: Western blot analysis for "B" compounds. The settings on record: read-out: Traditional Western Degradation Potency (DC50). The protocol:
Western Blot Analysis. Western blot analysis was performed essentially as described previously. The cells treated with indicated compounds were lysed in Radioimmunoprecipitation Assay Protein Lysis and Extraction Buffer (25 mmol/I. Tris.HCl, pH 7.6, 150 mmol/L, NaCl, 1% Nonidet P-40, 1% sodium deoxycholate, and 0.1% sodium dodecyl sulfate) containing proteinase inhibitor cocktail (Roche Diagnostics, Mannheim, Germany). Equal amounts of total protein were electrophoresed through 10% SDS-polyacrylamide gels after determination of protein concentration by BCA assay (Fisher Scientific, Pittsburgh, PA), The separated protein bands were transferred onto PVDF membranes (GE Healthcare Life Sciences, Marlborough, MA) and blotted against different antibodies, as indicated. The blots were scanned, and the band intensities were quantified using GelQuant.NET software provided by biochemlabsolutions.com. The relative mean intensity of target proteins was expressed after normalization to the intensity of glyceraldehyde-3-phosphate dehydrogenase bands.

The target in another experiment is ER in T47D cells (Homo sapiens (Human), UniProt P03372). The experiment in a line: In-cell Western (ICW) ER degradation assay in T47D cells. The settings on record: for DC50: ER degradation. The text has this:
(§1) In-cell Western (ICW) assays in MCF-7 and T47D cell lines.
(§2) Day 3: After 16 hrs of compounds treatment, cells were fixed by 4% PFA and permeabilized with elution buffer (0.1% Triton X-100 in 1% PBS Solution). Subsequently, cells were blocked with Intercept (PBS) Blocking Buffer (Li-COR, Odyssey Blocking Buffer), and were stained with ER (1:500, Cell signaling) primary antibody for overnight at cold room.
(§3) Day 4: Remove the buffer, add IRDye 800CW Goat anti-Rabbit IgG Secondary Antibody (1:2000) and CellTag 700 Stain (1:500) in Intercept (PBS) Blocking Buffer. Finally, cell plate is placed in incubator to dry. Image and signal were captured on Odyssey® DLx Imaging System.

The next experiment deals with ER in MCF-7 cells (Homo sapiens (Human), UniProt P03372). As to the kind of experiment: In-cell Western (ICW) ER degradation assay in MCF-7 cells. Particulars: for DC50: MCF-7, ER degradation, read-out: MCF7 DC50.
Sequence of ER in MCF-7 cells (P03372 whole entry): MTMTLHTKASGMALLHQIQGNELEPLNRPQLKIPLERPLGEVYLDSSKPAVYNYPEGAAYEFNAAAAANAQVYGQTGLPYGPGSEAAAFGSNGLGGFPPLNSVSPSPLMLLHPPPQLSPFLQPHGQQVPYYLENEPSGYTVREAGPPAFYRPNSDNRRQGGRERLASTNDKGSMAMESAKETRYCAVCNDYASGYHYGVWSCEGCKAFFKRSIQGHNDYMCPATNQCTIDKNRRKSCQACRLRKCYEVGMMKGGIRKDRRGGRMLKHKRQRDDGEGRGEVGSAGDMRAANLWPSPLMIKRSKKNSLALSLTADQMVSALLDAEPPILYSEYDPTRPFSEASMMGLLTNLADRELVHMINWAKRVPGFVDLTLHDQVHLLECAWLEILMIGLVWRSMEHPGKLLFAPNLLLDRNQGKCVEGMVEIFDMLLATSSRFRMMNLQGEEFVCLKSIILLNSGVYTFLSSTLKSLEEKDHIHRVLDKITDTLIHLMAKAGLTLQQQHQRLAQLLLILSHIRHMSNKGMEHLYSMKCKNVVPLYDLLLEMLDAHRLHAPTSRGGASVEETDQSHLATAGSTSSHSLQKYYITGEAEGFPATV
Text: as §1, §2, §3

[2] abbreviates: read-out: T47D Dmax, T47D, maximal ER degradation, 16 hrs treatment.
The mark [3] stands for this setting: MCF7, read-out: MCF7 Dmax, MCF-7, maximal ER degradation, 16 hrs treatment.
Where [4] appears, read: maximal ER degradation, 16 hrs treatment, read-out: T47D Dmax.
[5] abbreviates: MCF7, MCF-7, maximal ER degradation, 16 hrs treatment, read-out: MCF7 Dmax.

Sequence of ER in T47D cells (P03372 whole entry): as above

For `O=C1CCC(N2Cc3cc4c(cc3C2=O)CN(C(=O)C2CCN(CC3CN(c5ccc([C@@H]6c7ccc(O)cc7CC[C@@H]6c6ccccc6)cc5)C3)CC2)C4)C(=O)N1` (stereo partly drawn) [Compound B80, 3-(6-(1-((1-(4-((1R,2S)-6-hydroxy-2-phenyl-1,2,3,4-tetrahydronaphthalen-1-yl)phenyl)azetidin-3-yl)methyl)piperidine-4-carbonyl)-1-oxo-3,5,6,7-tetrahydropyrrolo[3,4-f]isoindol-2(1H)-yl)piperidine-2,6-dione], the 50% degradation concentration (DC50) (usually the concentration giving 50% degradation) in experiment [1] is greater than 0.1 µM.
The same measure, in the same setting: the value for `O=C1CCC(N2C(=O)c3cc4c(cc3C2=O)CN([C@H]2CC[C@@H](C(=O)N3CC(Nc5ccc([C@@H]6c7ccc(O)cc7CC[C@@H]6c6ccccc6)cc5)C3)CC2)C4)C(=O)N1` (stereo partly drawn) [Compound B125, 2-(2,6-dioxopiperidin-3-yl)-6-((1R,4s)-4-(3-((4-((1R,2S)-6-hydroxy-2-phenyl-1,2,3,4-tetrahydronaphthalen-1-yl)phenyl)amino)azetidine-1-carbonyl)cyclohexyl)-6,7-dihydropyrrolo[3,4-f]isoindole-1,3(2H,5H)-dione] was less than 0.01 µM.
Consider `Cn1cc(-c2ccc3c(c2)CC[C@H](c2ccccc2)[C@@H]3c2ccc(N3CCC4(CCN(C(=O)CN5Cc6cc7c(cc6C5)C(=O)N(C5CCC(=O)NC5=O)C7=O)CC4)CC3)cc2)cn1` (stereo partly drawn) [Compound B323, 2-(2,6-dioxopiperidin-3-yl)-6-(2-(9-(4-((1R,2S)-6-(1-methyl-1H-pyrazol-4-yl)-2-phenyl-1,2,3,4-tetrahydronaphthalen-1-yl)phenyl)-3,9-diazaspiro[5.5]undecan-3-yl)-2-oxoethyl)-6,7-dihydropyrrolo[3,4-f]isoindole-1,3(2H,5H)-dione], for which the DC50 in experiment [1] was greater than 0.1 µM.
For the molecule `O=C1CCC(N2C(=O)c3cc4c(cc3C2=O)CN(CC2CCN(C(=O)C3CN(c5ccc([C@@H]6c7ccc(O)cc7CC[C@@H]6c6ccccc6)cc5)C3)CC2)C4)C(=O)N1` (mixture of isomers) [Compound B35, 2-(2,6-dioxopiperidin-3-yl)-6-((1-(1-(4-((1R,2S)-6-hydroxy-2-phenyl-1,2,3,4-tctrahydronaphthalcn-1-yl)phcnyl)azctidinc-3-carbonyl)piperidin-4-yl)methyl)-6,7-dihydropyrrolo[3,4-f]isoindole-1,3(2H,5H)-dione], the 50% degradation concentration (DC50) in experiment [1] is 0.01 to 0.1 µM.
As for `O=C1CCC(N2Cc3c(ccc4c3OC[C@H]3CN(C(=O)C5CCN(c6ccc([C@@H]7c8ccc(O)cc8CC[C@@H]7c7ccccc7)cc6)CC5)CCN43)C2=O)C(=O)N1` (stereo partly drawn) [Compound B295, 3-((R)-7-(1-(4-((1R,2S)-6-hydroxy-2-phenyl-1,2,3,4-tetrahydronaphthalen-1-yl)phenyl)piperidine-4-carbonyl)-1-oxo-1,3,5,5a,6,7,8,9-octahydro-2H-pyrazino[1′,2′:4,5][1,4]oxazino[2,3-e]isoindol-2-yl)piperidine-2,6-dione], in experiment [1], the DC50 was greater than 0.1 µM.
Take `O=C1CCC(N2C(=O)c3cc4c(cc3C2=O)CN(CC(=O)N2CCC3(CCC(Oc5ccc([C@@H]6c7ccc(O)cc7CC[C@@H]6c6ccccc6)cc5)CC3)CC2)C4)C(=O)N1` (stereo partly drawn) [Compound B279, 2-(2,6-dioxopiperidin-3-yl)-6-(2-(9-(4-((1R,2S)-6-hydroxy-2-phenyl-1,2,3,4-tetrahydronaphthalen-1-yl)phenoxy)-3-azaspiro[5.5]undecan-3-yl)-2-oxoethyl)-6,7-dihydropyrrolo[3,4-f]isoindole-1,3(2H,5H)-dione]: in experiment [1], the DC50 was greater than 0.1 µM.
For `O=C1CCC(N2Cc3cc4c(cc3C2=O)NC(=O)[C@@H]2CN(CC3CCN(c5ccc([C@@H]6c7ccc(O)cc7CC[C@@H]6c6ccccc6)cc5)CC3)CCN42)C(=O)N1` (stereo partly drawn) [Compound B134, (4aS)-9-(2,6-dioxopiperidin-3-yl)-3-((1-(4-((1R,2S)-6-hydroxy-2-phenyl-1,2,3,4-tetrahydronaphthalen-1-yl)phenyl)piperidin-4-yl)methyl)-2,3,4,4a,9,10-hexahydropyrazino[1,2-a]pyrrolo[3,4-g]quinoxaline-5,8(1H,6H)-dione], in experiment [1], the half-maximal degradation concentration (DC50) was greater than 0.1 µM.
Same read-out and setting: under `O=C1CCC(N2C(=O)c3cc4c(cc3C2=O)CN(CC2(F)CCN(C(=O)C3(F)CN(c5ccc([C@@H]6c7ccc(O)cc7CC[C@@H]6c6ccccc6)cc5)C3)CC2)C4)C(=O)N1` (stereo partly drawn) [Compound B265, 2-(2,6-dioxopiperidin-3-yl)-6-((4-fluoro-1-(3-fluoro-1-(4-((1R,2S)-6-hydroxy-2-phenyl-1,2,3,4-tetrahydronaphthalen-1-yl)phenyl)azetidine-3-carbonyl)piperidin-4-yl)methyl)-6,7-dihydropyrrolo[3,4-f]isoindole-1,3(2H,5H)-dione] stands greater than 0.1 µM.
As to `O=C1CCC(N2C(=O)c3cc4c(cc3C2=O)CN(c2ncc(CN3CC(Oc5ccc([C@@H]6c7ccc(O)cc7CC[C@@H]6c6ccccc6)cc5)C3)cn2)C4)C(=O)N1` (stereo partly drawn) [Compound B89, 2-(2,6-dioxopiperidin-3-yl)-6-(5-((3-(4-((1R,2S)-6-hydroxy-2-phenyl-1,2,3,4-tetrahydronaphthalen-1-yl)phenoxy)azetidin-1-yl)methyl)pyrimidin-2-yl)-6,7-dihydropyrrolo[3,4-f]isoindole-1,3(2H,5H)-dione], the DC50 in experiment [1] is greater than 0.1 µM.
With `O=C1CC[C@H](N2Cc3cc4c(cc3C2=O)OCC42CCN(C[C@H]3COC4(CCN(c5ccc([C@H]6c7ccc(O)cc7CC[C@H]6c6ccccc6)cc5)CC4)C3)CC2)C(=O)N1` [Compound A22, (S)-3-(1′-(((S)-8-(4-((1S,2R)-6-hydroxy-2-phenyl-1,2,3,4-tetrahydronaphthalen-1-yl)-phenyl)-1-oxa-8-azaspiro[4.5]decan-3-yl)methyl)-7-oxo-5,7-dihydro-2H,6H-spiro[furo[2,3-f]isoindolc-3,4′-pipcridin]-6-yl)pipcridinc-2,6-dione], the half-maximal degradation concentration (DC50) on ER in T47D cells (16 hrs treatment) and on ER in MCF-7 cells (16 hrs treatment) was less than 0.001 µM each time. In addition, the Dmax (as a rule, the largest share of the target that was removed) on ER in T47D cells (setting [2]) lay within 25 to 50%; on ER in MCF-7 cells (setting [3]) it was 50 to 75%.
For `COc1cc(N2CCC3(CC2)CC(CN2CCC(c4ccc(N[C@H]5CCC(=O)NC5=O)cc4)CC2)C3)ccc1[C@@H]1c2ccc(O)cc2CC[C@@H]1c1ccccc1` (single isomer, unassigned) [Compound A96], the DC50 at ER in T47D cells (16 hrs treatment) and at ER in MCF-7 cells (16 hrs treatment) was less than 0.001 µM throughout. In addition, the Dmax on ER in T47D cells (setting [4]) and on ER in MCF-7 cells (setting [5]) was 50 to 75% each time.
As for `O=C1CC[C@@H](N2Cc3cc4c(cc3C2=O)OC[C@H]2CN(CC3COC5(C3)CN(c3ccc([C@H]6c7ccc(O)cc7CC[C@H]6c6ccccc6)cc3)C5)CCN42)C(=O)N1` (stereo in doubt) [Compound A8, (3R)-3-((4aR)-3-((2-(4-((1S,2R)-6-hydroxy-2-phenyl-1,2,3,4-tetrahydronaphthalen-1-yl)phenyl)-5-oxa-2-azaspiro[3,4]octan-7-yl)methyl)-8-oxo-1,2,3,4,4a,5,8,10-octahydro-9H-pyrazino[1′,2′: 4,5][1,4]oxazino[2,3-f]isoindol-9-yl)piperidine-2,6-dione], the half-maximal degradation concentration (DC50) at ER in T47D cells (16 hrs treatment) and at ER in MCF-7 cells (16 hrs treatment) was less than 0.001 µM throughout. Moreover, the “T47D Dmax” value at ER in T47D cells (maximal ER degradation, 16 hrs treatment) is listed as “A (“A”: >=75%)”. At ER in MCF-7 cells (setting [3]), the maximal degradation (Dmax) is greater than 75%.
As for `COc1cc(N2CCC(CN3CCC(c4ccc(N[C@@H]5CCC(=O)NC5=O)cc4F)CC3)CC2)ccc1[C@@H]1c2ccc(O)cc2CC[C@@H]1c1ccccc1` (single isomer, unassigned) [Compound A85], the DC50 at ER in T47D cells (16 hrs treatment) and at ER in MCF-7 cells (16 hrs treatment) was less than 0.001 µM in each case. The greatest degradation seen (Dmax) on ER in T47D cells (setting [4]) lay within 50 to 75%; at ER in MCF-7 cells (setting [5]), 25 to 50%.
With `COc1cc(N2CCC(CN3CCC4(CC3)COc3cc5c(cc34)CN([C@H]3CCC(=O)NC3=O)C5=O)CC2)ccc1[C@H]1c2ccc(O)cc2CC[C@H]1c1ccccc1` [Compound A38, (R)-3-(1′-((1-(4-((1S,2S)-6-hydroxy-2-phenyl-1,2,3,4-tetrahydronaphthalen-1-yl)-3-methoxyphenyl)piperidin-4-yl)methyl)-7-oxo-5,7-dihydro-2H,6H-spiro[furo[2,3-f]iso-indole-3,4′-piperidin]-6-yl)-piperidine-2,6-dione formate], the half-maximal degradation concentration (DC50) at ER in T47D cells (16 hrs treatment) was 0.001 to 0.01 µM; at ER in MCF-7 cells (16 hrs treatment) it was 0.01 to 0.1 µM. The Dmax at ER in T47D cells (setting [2]) and on ER in MCF-7 cells (setting [3]) was 25 to 50% each time.
With `COc1cc(N2CCC(CN3CCN4c5cc6c(cc5OC[C@@H]4C3)C(=O)N([C@H]3CCC(=O)NC3=O)C6)CC2)ccc1[C@H]1c2ccc(O)cc2CC[C@H]1c1ccccc1` (single isomer, unassigned) [Compound A21], the figures for the half-maximal degradation concentration (DC50) at ER in T47D cells (16 hrs treatment) and at ER in MCF-7 cells (16 hrs treatment) were 0.001 to 0.01 µM and 0.01 to 0.1 µM, respectively. Also, the Dmax at ER in T47D cells (setting [4]) and on ER in MCF-7 cells (setting [3]) was 50 to 75% each time.
